Measurements published in PMC10054091, “Maleic Acid as a Co-Former for Pharmaceutically Active GABA Derivatives: Mechanochemistry or Solvent Crystallization?” (Materials, 2023).
Converted amounts (≈) assume the structure as drawn. “And” between values parts separate entries of the source, which are not always exact repeats. Identical values can stand only once.

Key:
[1] = Solubility in aqueous medium by 1H-NMR of saturated solutions
Procedure: Solubilities: Determination of substance solubilities were performed through ^1H-NMR spectroscopy with a Bruker Avance III NMR-spectrometer at 600 MHz. Saturated solutions of crystalline material were placed in an incubator at 25 °C and moved for 60 min^−1. Three samples of each investigated substance were left for three days under these conditions. Subsequently, 50 μL of the solution was removed from the samples and added to 450 μL of D2O for ^1H-NMR measurements. Solubility was determined by the ratio of integrated solvent to substance peak. Solubility values are presented as averages over the recorded samples with the error margin according to their standard deviation. […]
7 Solubility determination details
Solubilities were determined with 1H-NMR. Three samples for each single compound and three samples for each received maleate gained through grinding or solvent crystalliz ation were prepared. For this, dispersions of the investigated compounds in water were prepared in such a way that no complete dissolution would occur after three days at 25 °C in an incubator shaking with 60 min -1. Subsequently, 50 μL of liquid were removed from the samples and added to 450 μL of D 2O prepared in an NMR-tube. 1H-NMR measurements were conducted on a Bruker Avance III NMR-spectrometer at 600 MHz. Solubilities were determined by phase and baseline correction of the received spectrum in MestReNova software x64 14.2.0, application of D 2O shift on the solvent peak from the MestReNova […]
database. Integration of a chosen signal in the received spectrum and furt her integration of the solvent signal. The latter signal was always integrated in the borders of 5.000 – 4.600 ppm, the product signals were integrated in as narrow a range as possible ( Table S7). Trace water in D 2O w as considered negligible. Solubilities were calculated by the following […]
Where S p is the solubility of the API in gL -1, M p is the molar mass of the targeted API in g mol-1, I w is the value of the water integral received, n is an adjustment factor necessary if […]
= 2 because solvent is water), M w is the molar mass of water in gmol -1 and ρw is the density of water at 25 °C in gL-1. Error was calculated as the standard deviation of the three recorded samples according to Equation 2.
Here V is the standard deviation, x is the average of the three solubility values, x̅ each single solubility value and n the number of samples, three.

[2] = cited from earlier work
[3] = given enough time
Procedure: PXRD: Powder patterns were recorded on a Rigaku Miniflex 300 powder diffractometer with a Cu-Source and Kα radiation at […] in Θ/2Θ-geometry. Measurements were conducted at ambient temperature in a range of 5–50° 2Θ.

[4] = Table S7, water, 25 °C, three days, three samples, _sol = solvent crystallization, _mill = grinding
[5] = API solubility, aqueous medium, 25 °C, saturated solutions after three days, 1H-NMR, average of three samples, _M = mechanochemically prepared sample
[6] = product obtained by grinding (mechanochemical), water, 25 °C, three days
[7] = product obtained from solution (solvent product), water, 25 °C, three days
[8] = aqueous medium, 25 °C, three days

NCC1(CC(=O)O)CCCCC1 [compound 2, Gabapentin, reference compound]
Sp ± V (solubility of the API ± standard deviation) [1, 4]: 174 ± 7 gL-1 | solubility thermodynamic at 3 days ([1]; water): 174 mg/mL (≈ 1020 mM) | pKa of the acid function [2]: around 4

NCC(CC(=O)O)c1ccccc1 (stereo not drawn) [compound 4, Phenibut, reference compound]
Sp ± V (solubility of the API ± standard deviation) [1, 4]: 15 ± 0.3 gL-1 | Increase of API solubility in its maleate compared to the pure form ([1]; aqueous medium, 25 °C): eightfold | solubility thermodynamic at 3 days ([1]; water): 15 mg/mL (≈ 83.7 mM) | pKa of the acid function [2]: around 4

Gabapentin maleate hydrate [2-MA•H2O]
Solubility [1, 5]: 241 ± 8 gL^−1 and 241 gL^−1 | Sp ± V (solubility of the API ± standard deviation) [1, 4]: 241 ± 8 gL-1

CC(C)C[C@H](CN)CC(=O)O [compound 3, Pregabalin, reference compound]
Increase of API solubility in its maleate compared to the pure form ([1]; aqueous medium, 25 °C, listed as Pregabalin): up to twentyfold | pKa of the acid function [2]: around 4

CC(C)CC(CN)CC(=O)O.O=C(O)C=CC(=O)O (racemic) [(rac)-3-MA, (rac)-Pregabalin maleate]
Solubility [1, 5]: 719 gL^−1 | Solubility ([1]; API solubility, aqueous medium, 25 °C, saturated solutions after three days, 1H-NMR, average of three samples, _M = mechanochemically prepared sample, listed as (rac)-3-MA_M): 556 gL^−1 | Sp ± V (solubility of the API ± standard deviation) ([1]; Table S7, water, 25 °C, three days, three samples, _sol = solvent crystallization, _mill = grinding, listed as (rac)-3-MA_mill): 559 ± 19 gL-1 | Sp ± V (solubility of the API ± standard deviation) ([1]; Table S7, water, 25 °C, three days, three samples, _sol = solvent crystallization, _mill = grinding, listed as (rac)-3-MA_sol): 719 ± 10 gL-1 | Solubility [1, 6]: 556 ± 19 gL^−1 | Solubility [1, 7]: 719 ± 10 gL^−1

NCC(CC(=O)O)c1ccc(Cl)cc1 (stereo not drawn) [compound 5, Baclofen, reference compound]
Increase of API solubility in its maleate compared to the pure form [1]: twofold | Sp ± V (solubility of the API ± standard deviation) [1]: 3 ± 0.1 gL-1 | solubility thermodynamic at 3 days ([1]; water): 3 mg/mL (≈ 14 mM) | pKa of the acid function [2]: around 4

NCC(CC(=O)O)c1ccccc1.O=C(O)C=CC(=O)O (stereo not drawn) [4-MA, Phenibut maleate]
Solubility [1, 5]: 124 gL^−1 | Solubility ([1]; API solubility, aqueous medium, 25 °C, saturated solutions after three days, 1H-NMR, average of three samples, _M = mechanochemically prepared sample, listed as 4-MA_M): 128 gL^−1 | Sp ± V (solubility of the API ± standard deviation) ([1]; Table S7, water, 25 °C, three days, three samples, _sol = solvent crystallization, _mill = grinding, listed as 4-MA_mill): 128 ± 8 gL-1 | Sp ± V (solubility of the API ± standard deviation) ([1]; Table S7, water, 25 °C, three days, three samples, _sol = solvent crystallization, _mill = grinding, listed as 4-MA_sol): 124 ± 4 gL-1 | Change of solubility of the maleate versus the pure API (in words) [1, 8]: uniform increases in solubility

CC(C)CC(CN)CC(=O)O (racemic) [(rac)-3•H2O, (rac)-Pregabalin hydrate, reference compound]
Sp ± V (solubility of the API ± standard deviation) [1, 4]: 33 ± 1 gL-1 | Increase of API solubility in its maleate compared to the pure form ([1]; aqueous medium, 25 °C): 23 fold | solubility thermodynamic at 3 days ([1]; water): 33 mg/mL

CC(C)C[C@H](CN)CC(=O)O [(S)-3, (S)-Pregabalin, reference compound]
Sp ± V (solubility of the API ± standard deviation) [1, 4]: 41 ± 1 gL-1 | Increase of API solubility in its maleate compared to the pure form ([1]; aqueous medium, 25 °C, listed as (S)-Pregabalin): 21 fold | solubility thermodynamic at 3 days ([1]; water): 41 mg/mL (≈ 257 mM)

(S)-Pregabalin maleate hydrate [(S)-3-MA•H2O]
Solubility [1, 5]: 977 gL^−1 | Solubility ([1]; API solubility, aqueous medium, 25 °C, saturated solutions after three days, 1H-NMR, average of three samples, _M = mechanochemically prepared sample, listed as (S)-3-MA•H2O_M): 809 gL^−1 | Sp ± V (solubility of the API ± standard deviation) ([1]; Table S7, water, 25 °C, three days, three samples, _sol = solvent crystallization, _mill = grinding, listed as (S)-3-MA• H2O_mill): 809 ± 8 gL-1 | Sp ± V (solubility of the API ± standard deviation) ([1]; Table S7, water, 25 °C, three days, three samples, _sol = solvent crystallization, _mill = grinding, listed as (S)-3-MA• H2O_sol): 977 ± 79 gL-1 | Solubility [1, 6]: 809 ± 8 gL^−1 | Solubility [1, 7]: 977 ± 79 gL^−1

NCC(CC(=O)O)c1ccc(Cl)cc1.O=C(O)C=CC(=O)O (stereo not drawn) [5-MA, Baclofen maleate]
Solubility [1, 5]: 6 gL^−1 | Sp ± V (solubility of the API ± standard deviation) ([1]; Table S7, water, 25 °C, three days, three samples, _sol = solvent crystallization, _mill = grinding, listed as 5-MA_mill): 6 ± 0.6 gL-1 | Sp ± V (solubility of the API ± standard deviation) ([1]; Table S7, water, 25 °C, three days, three samples, _sol = solvent crystallization, _mill = grinding, listed as 5-MA_sol): 6 ± 0.3 gL-1 | Change of solubility of the maleate versus the pure API (in words) [1, 8]: uniform increases in solubility

O=C(O)/C=C\C(=O)O [MA, Maleic acid]
Solubility [1]: 687 ± 44 gL^−1 | Sp ± V (solubility of the API ± standard deviation) [1]: 687 ± 44 gL-1 | solubility thermodynamic at 3 days ([1]; water): 687 mg/mL (≈ 5920 mM) | pKa1 [2]: 1.74 | pKa2 [2]: 5.81

NCC1(CC(=O)O)CCCCC1.O=C(O)C=CC(=O)O [2-MA, Gabapentin maleate]
Solubility [1, 5]: 218 ± 8 gL^−1 | Solubility ([1]; API solubility, aqueous medium, 25 °C, saturated solutions after three days, 1H-NMR, average of three samples, _M = mechanochemically prepared sample, listed as 2-MA_M): 218 gL^−1 | Sp ± V (solubility of the API ± standard deviation) [1, 4]: 218 ± 8 gL-1

CC(C)CC(CN)CC(=O)O.O=C(O)C=CC(=O)O (racemic) [(rac)-3-MA-I, (rac)-Pregabalin maleate I]
Phase stability of the solid form over time [3]: converts to (rac)-3-MA-II
